Reference: US20260078108A1, “SOLID FORMS OF A ROCK INHIBITOR” (REDX PHARMA PLC, priority 2022, published 2026)

How the values were obtained:
[1] = target: T1, CB1 (h) (Homo sapiens, UniProt P21554); test: CEREP panel CB1 (h) antagonist effect, cAMP HTRF; format: cell-based; conditions: HCl salt tested; CHO cells, CP 55940 (1 nM)
T1 construct: expressed in transfected cells; host or cells: CHO cells
Source text: (§1) The use of in vitro pharmacological screening against a diverse range of targets (receptors, ion channels, enzymes and transporters) is used to identify undesirable off-target activity that may cause adverse drug reactions in humans. Screening panels (e.g. SafetyScreen44™ Panel, Eurofins) comprise a selection of off-targets linked with known issues in humans that could hinder or halt the development of drug candidates or market withdrawal if discovered after a drug is approved. The HCl salts of the S enantiomer and the R enantiomer of compound A were tested against a panel of such targets.
(§2) The tests were carried out according to the methods described in the following tables and indicated literature references.

[2] = target: T2, Serotonin transporter (Homo sapiens, UniProt P31645); test: CEREP panel serotonin transporter uptake (h), [3H]5HT incorporation; format: cell-based; conditions: HCl salt tested; [3H]5HT incorporation in cells
T2 construct: expressed in transfected cells
Source text: as §1, §2

T1 sequence (P21554 whole entry): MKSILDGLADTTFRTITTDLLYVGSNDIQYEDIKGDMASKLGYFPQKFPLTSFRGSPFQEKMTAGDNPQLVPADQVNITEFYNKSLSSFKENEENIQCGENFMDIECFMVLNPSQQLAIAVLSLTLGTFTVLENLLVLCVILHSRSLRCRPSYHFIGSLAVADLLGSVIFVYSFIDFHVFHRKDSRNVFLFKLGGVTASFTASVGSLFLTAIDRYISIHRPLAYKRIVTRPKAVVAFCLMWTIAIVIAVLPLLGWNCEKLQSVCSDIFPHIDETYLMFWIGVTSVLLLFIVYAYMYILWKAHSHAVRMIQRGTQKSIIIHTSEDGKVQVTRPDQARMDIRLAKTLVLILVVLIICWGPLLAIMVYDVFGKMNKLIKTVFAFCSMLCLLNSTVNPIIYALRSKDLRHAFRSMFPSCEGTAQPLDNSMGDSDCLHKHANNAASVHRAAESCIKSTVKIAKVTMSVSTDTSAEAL
T2 sequence (P31645 whole entry): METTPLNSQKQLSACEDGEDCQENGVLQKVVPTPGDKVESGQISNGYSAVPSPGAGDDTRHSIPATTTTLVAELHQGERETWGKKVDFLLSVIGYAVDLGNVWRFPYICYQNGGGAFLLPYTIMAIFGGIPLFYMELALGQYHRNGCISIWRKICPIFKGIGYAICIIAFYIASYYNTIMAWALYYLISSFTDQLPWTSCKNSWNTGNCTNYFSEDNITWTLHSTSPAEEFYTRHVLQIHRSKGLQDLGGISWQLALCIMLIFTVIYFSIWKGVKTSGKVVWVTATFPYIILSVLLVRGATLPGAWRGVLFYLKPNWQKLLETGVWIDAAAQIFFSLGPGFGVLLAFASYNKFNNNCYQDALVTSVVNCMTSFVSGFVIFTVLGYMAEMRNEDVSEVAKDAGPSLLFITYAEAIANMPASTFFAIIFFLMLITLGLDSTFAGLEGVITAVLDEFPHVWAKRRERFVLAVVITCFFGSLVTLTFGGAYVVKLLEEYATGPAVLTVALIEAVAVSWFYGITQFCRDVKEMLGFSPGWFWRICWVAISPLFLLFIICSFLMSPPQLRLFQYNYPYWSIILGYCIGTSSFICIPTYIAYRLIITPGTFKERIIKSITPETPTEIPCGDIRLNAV

SMILES	CB1 (h) (antagonist effect) (IC50) [1]	IC50 [2] [µM]
NCc1ccc(C(=O)Nc2ccncc2F)cc1-c1cccc(C(=O)Nc2ccc(SC[C@@H]3CCOC3=O)cc2)c1 [R-enantiomer]	Inactive	6
NCc1ccc(C(=O)Nc2ccncc2F)cc1-c1cccc(C(=O)Nc2ccc(SC[C@H]3CCOC3=O)cc2)c1 [S-enantiomer]	Inactive	11
